Measurements published in patent publication US20100069436A1, “IMIDAZOLE COMPOUNDS HAVING AN ANTIINFLAMMATORY EFFECT” (Merckle, priority 2006, published 2010).

Biological target: p38α MAP kinase (Homo sapiens, UniProt Q16539)
Assay: Assay to determine the inhibition of p38α MAP kinase (phosphorylation of ATF-2, IC50-values)
Type: biochemical
Settings: ATF-2 coated microtiter plates, 10 ng activated p38α, 100 μM ATP, 1 h at 37° C.; read-out: IC50, inhibition of the phosphorylation of ATF-2 by p38a MAP kinase
Experimental: Assay to determine the inhibition of p38α MAP kinase (IC50-values)
Microtiter plates were coated with the p38 MAP kinase substrate ATF-2 by incubating 50 μl of 20 μg/ml ATF-2 for one hour at 37° C. After the plates were washed three times with water, 50 μl of kinase mixture (=50 mM Tris-HCl, 10 mM MgCl2, 10 mM β-glycerol phosphate, 10 μg/ml BSA, 1 mM DTT, 100 μM ATP, 100 μM […], 10 ng activated p38α) without an with increasing inhibitor concentrations were added into the wells and incubated for one hour at 37° C. The plates were washed three times with water and incubated with an anti-phospho-ATF-2 antibody for one hour at 37°. Thereafter, the plates were again washed three times with water and incubated with a goat, alkaline phosphatase-labeled anti-rabbit IgG, for one hour at 37° C. The plates were washed and incubated with 100 μl of a solution containing the phosphatase substrate 4-nitrophenolphosphate (3 mM 4-NPP, 50 mM NaHCO3, 50 mM MgCl2) for 1.5 hours at 37° C. Formation of 4-nitrophenolate was measured at 405 nm using a microtiter plate reader. Based on the inhibitor-concentration/response curves, IC50-values were determined.

Sequence of p38α MAP kinase (Q16539 whole entry): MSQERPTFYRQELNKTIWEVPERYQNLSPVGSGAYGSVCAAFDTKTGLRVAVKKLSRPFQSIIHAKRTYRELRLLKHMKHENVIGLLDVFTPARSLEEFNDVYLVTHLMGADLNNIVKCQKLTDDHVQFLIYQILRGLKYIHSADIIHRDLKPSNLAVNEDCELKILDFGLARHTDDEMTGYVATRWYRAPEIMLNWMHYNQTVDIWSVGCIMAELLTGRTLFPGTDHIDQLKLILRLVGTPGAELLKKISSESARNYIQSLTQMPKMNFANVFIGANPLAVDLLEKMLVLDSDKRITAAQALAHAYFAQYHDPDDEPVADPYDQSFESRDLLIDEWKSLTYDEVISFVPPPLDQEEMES

Row | IC50 | SMILES
1 | < 1000 nM | CSc1nc(-c2ccc(F)cc2)c(-c2ccnc(NC3CCCCC3=O)c2)n1C (centres unmarked) [Example 28, 2-{4-[5-(4-Fluoro-phenyl)-3-methyl-2-methylsulfanyl-3H-imidazol-4-yl]-pyridin-2-ylamino}-cyclohexanone]
2 | < 1000 nM | COCCn1c(SC)nc(-c2ccc(F)cc2)c1-c1ccnc(NCC2CCCCC2O)c1 (centres unmarked) [35 (1)]
3 | < 1000 nM | COCCn1c(SC)nc(-c2ccc(F)cc2)c1-c1ccnc(NCC(C)O)c1 (centres unmarked) [Example 14, 1-{4-[5-(4-Fluoro-phenyl)-3-(2-methoxy-ethyl)-2-methylsulfanyl-3H-imidazol-4-yl]-pyridin-2-ylamino}-propan-2-ol]
4 | 1000 to 10000 nM | Cn1c([S+](C)[O-])nc(-c2ccc(F)cc2)c1-c1ccnc(NC2CCCCC2O)c1 (centres unmarked) [Example 24, 2-{4-[5-(4-Fluoro-phenyl)-2-methanesulfinyl-3-methyl-3H-imidazol-4-yl]pyridin-2-ylamino}-cyclohexanol]
5 | < 1000 nM | CCN1CCCC1CNc1cc(-c2c(-c3ccc(F)cc3)nc(SC)n2CCOC)ccn1 (centres unmarked) [Example 2]
6 | 1000 to 10000 nM | COCCn1c([S+](C)[O-])nc(-c2ccc(F)cc2)c1-c1ccnc(NC2CCN(Cc3ccccc3)CC2)c1 (centres unmarked) [Example 12, (1-Benzyl-piperidin-4-yl)-{4-[5-(4-fluoro-phenyl)-2-methanesulfinyl-3-(2-methoxy-ethyl)-3H-imidazol-4-yl]-pyridin-2-yl}-amine]
7 | > 10000 nM | CC(O)CNc1cc(-c2c(-c3ccc(F)cc3)nc([S+](C)[O-])n2C)ccn1 (centres unmarked) [Example 20, 1-{4-[5-(4-Fluoro-phenyl)-2-methanesulfinyl-3-methyl-3H-imidazol-4-yl]-pyridin-2-ylamino}-propan-2-ol]
8 | < 1000 nM | COCCn1c(SC)nc(-c2ccc(F)cc2)c1-c1ccnc(NC2CCC(O)CC2)c1 (centres unmarked) [Example 16, 4-{4-[5-(4-Fluoro-phenyl)-3-(2-methoxy-ethyl)-2-methylsulfanyl-3H-imidazol-4-yl]-pyridin-2-ylamino}-cyclohexanol]
9 | 1000 to 10000 nM | CSc1nc(-c2ccc(F)cc2)c(-c2ccnc(NC3CCN(Cc4ccccc4)CC3)c2)n1C [Example 5, (1-Benzyl-piperidin-4-yl)-{4-[5-(4-fluoro-phenyl)-3-methyl-2-methylsulfanyl-3H-imidazol-4-yl]-pyridin-2-yl}-amine]
10 | > 10000 nM | Cn1c([S+](C)[O-])nc(-c2ccc(F)cc2)c1-c1ccnc(NC2CCN(Cc3ccccc3)CC2)c1 (centres unmarked) [Example 11, (1-Benzyl-piperidin-4-yl)-{4-[5-(4-fluoro-phenyl)-2-methanesulfinyl-3-methyl-3H-imidazol-4-yl]-pyridin-2-yl}-amine]
11 | > 10000 nM | CCN1CCCC1CNc1cc(-c2c(-c3ccc(F)cc3)nc(SC)n2C)ccn1 (centres unmarked) [Example 1, (1-Ethyl-pyrrolidin-2-ylmethyl)-{4-[5-(4-fluoro-phenyl)-3-methyl-2-methylsulfanyl-3H-imidazol-4-yl]-pyridin-2-yl}-amine]
12 | < 1000 nM | CSc1nc(-c2ccc(F)cc2)c(-c2ccnc(NC3CCC(O)CC3)c2)n1C (centres unmarked) [Example 15, 4-{4-[5-(4-Fluoro-phenyl)-3-methyl-2-methylsulfanyl-3H-imidazol-4-yl]-pyridin-2-ylamino}-cyclohexanol]
13 | < 1000 nM | COCCn1c(SC)nc(-c2ccc(F)cc2)c1-c1ccnc(NC(=O)C2CCOCC2)c1 [Example 32, Tetrahydro-pyran-4-carboxylic acid {4-[5-(4-fluoro-phenyl)-3-(2-methoxy-ethyl)-2-methylsulfanyl-3H-imidazol-4-yl]-pyridin-2-yl}-amide]
14 | < 1000 nM | CSc1nc(-c2ccc(F)cc2)c(-c2ccnc(NC3CCCCC3O)c2)n1C (centres unmarked) [Example 18, 2-{4-[5-(4-Fluoro-phenyl)-3-methyl-2-methylsulfanyl-3H-imidazol-4-yl]-pyridin-2-ylamino}-cyclohexanol]
15 | > 10000 nM | COCCn1c([S+](C)[O-])nc(-c2ccc(F)cc2)c1-c1ccnc(NC2CC(C)(C)NC(C)(C)C2)c1 (centres unmarked) [Example 10]
16 | 1000 to 10000 nM | COCCn1c(S(C)(=O)=O)nc(-c2ccc(F)cc2)c1-c1ccnc(NC2CCCCC2O)c1 (centres unmarked) [35 (4)]

Row | IC50 | SMILES
17 | 1000 to 10000 nM | COCCn1c(SC)nc(-c2ccc(F)cc2)c1-c1ccnc(NC2CCCCC2O)c1 (centres unmarked) [Example 19, 2-{4-[5-(4-Fluoro-phenyl)-3-(2-methoxy-ethyl)-2-methylsulfanyl-3H-imidazol-4-yl]-pyridin-2-ylamino}-cyclohexanol]
18 | 1000 to 10000 nM | COCCn1c([S+](C)[O-])nc(-c2ccc(F)cc2)c1-c1ccnc(NC2CCCCC2O)c1 (centres unmarked) [Example 25, 2-{4-[5-(4-Fluoro-phenyl)-2-methanesulfinyl-3-(2-methoxy-ethyl)-3H-imidazol-4-yl]-pyridin-2-ylamino}-cyclohexanol]
19 | > 10000 nM | CCN1CCCC1CNc1cc(-c2c(-c3ccc(F)cc3)nc([S+](C)[O-])n2C)ccn1 (centres unmarked) [Example 7, (1-Ethyl-pyrrolidin-2-ylmethyl)-{4-[5-(4-fluoro-phenyl)-2-methanesulfinyl-3-methyl-3H-imidazol-4-yl]-pyridin-2-yl}-amine]
20 | 1000 to 10000 nM | COCCn1c(SC)nc(-c2ccc(F)cc2)c1-c1ccnc(NCC(C)=O)c1 [Example 26, 1-{4-[5-(4-Fluoro-phenyl)-3-(2-methoxy-ethyl)-2-methylsulfanyl-3H-imidazol-4-yl]-pyridin-2-ylamino}-propan-2-one]
21 | < 1000 nM | COCCn1c(SC)nc(-c2ccc(F)cc2)c1-c1ccnc(NC2CCCCC2O)c1 (centres unmarked) [Example 35 (2)]
22 | < 1000 nM | COCCn1c(SC)nc(-c2ccc(F)cc2)c1-c1ccnc(NC2CC(C)(C)NC(C)(C)C2)c1 [Example 4, {4-[5-(4-Fluoro-phenyl)-3-(2-methoxy-ethyl)-2-methylsulfanyl-3H-imidazol-4-yl]-pyridin-2-yl}-(2,2,6,6-tetramethyl-piperidin-4-yl)-amine]
23 | 1000 to 10000 nM | COCCn1c(SC)nc(-c2ccc(F)cc2)c1-c1ccnc(NC2CCN(Cc3ccccc3)CC2)c1 [Example 6, (1-Benzyl-piperidin-4-yl)-{4-[5-(4-fluoro-phenyl)-3-(2-methoxy-ethyl)-2-methylsulfanyl-3H-imidazol-4-yl]-pyridin-2-yl}-amine]
24 | < 1000 nM | COCCn1c([S+](C)[O-])nc(-c2ccc(F)cc2)c1-c1ccnc(NC(=O)C2CCOCC2)c1 (centres unmarked) [Example 33, Tetrahydro-pyran-4-carboxylic acid {4-[5-(4-fluoro-phenyl)-2-methanesulfinyl-3-(2-methoxy-ethyl)-3H-imidazol-4-yl]-pyridin-2-yl}-amide]
25 | 1000 to 10000 nM | CSc1nc(-c2ccc(F)cc2)c(-c2ccnc(NC3CCC(=O)CC3)c2)n1C [Example 27, 4-{4-[5-(4-Fluoro-phenyl)-3-methyl-2-methylsulfanyl-3H-imidazol-4-yl]-pyridin-2-ylamino}-cyclohexanone]
26 | < 1000 nM | Cn1c([S+](C)[O-])nc(-c2ccc(F)cc2)c1-c1ccnc(NC2CCC(O)CC2)c1 (centres unmarked) [Example 22, 4-{4-[5-(4-Fluoro-phenyl)-2-methanesulfinyl-3-methyl-3H-imidazol-4-yl]-Pyridin-2-ylamino}-cyclohexanol]
27 | 1000 to 10000 nM | COCCn1c([S+](C)[O-])nc(-c2ccc(F)cc2)c1-c1ccnc(NCC(C)O)c1 (centres unmarked) [Example 21, 1-{4-[5-(4-Fluoro-phenyl)-2-methanesulfinyl-3-(2-methoxy-ethyl)-3H-imidazol-4-yl]-pyridin-2-ylamino}-propan-2-ol]
28 | < 1000 nM | COCCn1c([S+](C)[O-])nc(-c2ccc(F)cc2)c1-c1ccnc(NC2CCC(O)CC2)c1 (centres unmarked) [Example 23, 4-{4-[5-(4-Fluoro-phenyl)-2-methanesulfinyl-3-(2-methoxy-ethyl)-3H-imidazol-4-yl]-pyridin-2-ylamino}-cyclohexanol]
29 | 1000 to 10000 nM | CSc1nc(-c2ccc(F)cc2)c(-c2ccnc(NC3CCCCC3O)c2)n1C (centres unmarked) [Example 17, 2-{4-[5-(4-Fluoro-phenyl)-3-methyl-2-methylsulfanyl-3H-imidazol-4-yl]-pyridin-2-ylamino}-cyclohexanol]
30 | < 1000 nM | CSc1nc(-c2ccc(F)cc2)c(-c2ccnc(NCC(C)O)c2)n1C (centres unmarked) [Example 13, 1-{4-[5-(4-Fluoro-phenyl)-3-methyl-2-methylsulfanyl-3H-imidazol-4-yl]-pyridin-2-ylamino}-propan-2-ol]
31 | > 10000 nM | Cn1c([S+](C)[O-])nc(-c2ccc(F)cc2)c1-c1ccnc(NC2CC(C)(C)NC(C)(C)C2)c1 (centres unmarked) [Example 9, {4-[5-(4-Fluoro-phenyl)-2-methanesulfinyl-3-methyl-3H-imidazol-4-yl]-pyridin-2-yl}-(2,2,6,6-tetramethyl-piperidin-4-yl)-amine]
32 | 1000 to 10000 nM | CSc1nc(-c2ccc(F)cc2)c(-c2ccnc(NC3CC(C)(C)NC(C)(C)C3)c2)n1C [Example 3]
